Results from US20120328518A1, “PROSTATE SPECIFIC MEMBRANE ANTIGEN INHIBITORS” (PIRAMAL IMAGING SA, priority 2009, published 2012).
Values belong to the compound of their own block, whether it stands above or below them.

What was measured:
[1] = tested on: LNCaP xenografts; experiment: PET/CT-imaging in LNCaP-tumor bearing mice; assay type: in vivo
[2] = biological target: T1, PSMA (FOLH1) (Homo sapiens, UniProt Q04609); experiment: In vitro inhibition of NAALADase activity in LNCaP membrane extracts; assay type: biochemical; details: crude membrane extracts from LNCaP cells; release of [3H]-Glutamate from [3H]NAAG, pH7.4, 30 min at 37° C.; read-out: IC50 with respect to NAALADase activity
T1 construct: protein extracted from the membrane fraction of LNCaP cells; host or cells: LNCaP cells (crude membrane extract)
T1 sequence (Q04609 whole entry): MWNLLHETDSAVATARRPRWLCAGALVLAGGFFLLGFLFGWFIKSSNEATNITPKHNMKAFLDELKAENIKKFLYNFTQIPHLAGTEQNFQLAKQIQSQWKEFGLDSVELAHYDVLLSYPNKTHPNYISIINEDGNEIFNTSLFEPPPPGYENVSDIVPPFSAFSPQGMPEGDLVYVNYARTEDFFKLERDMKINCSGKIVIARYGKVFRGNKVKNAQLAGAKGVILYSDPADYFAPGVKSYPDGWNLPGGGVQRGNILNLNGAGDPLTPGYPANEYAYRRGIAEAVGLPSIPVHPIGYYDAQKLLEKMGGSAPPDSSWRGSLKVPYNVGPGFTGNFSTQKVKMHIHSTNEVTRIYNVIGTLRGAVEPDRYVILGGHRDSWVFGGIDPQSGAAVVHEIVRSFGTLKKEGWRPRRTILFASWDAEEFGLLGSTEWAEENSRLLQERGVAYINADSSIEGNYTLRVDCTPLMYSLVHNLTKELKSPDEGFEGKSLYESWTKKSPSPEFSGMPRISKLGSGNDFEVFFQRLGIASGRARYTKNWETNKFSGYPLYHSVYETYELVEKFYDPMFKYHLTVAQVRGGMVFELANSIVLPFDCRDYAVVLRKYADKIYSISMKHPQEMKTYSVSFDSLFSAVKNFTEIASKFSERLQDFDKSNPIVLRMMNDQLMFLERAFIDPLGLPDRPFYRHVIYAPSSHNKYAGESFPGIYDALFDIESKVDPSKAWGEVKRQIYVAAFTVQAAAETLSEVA
Protocol: NAALADase activity was assayed essentially as described previously (Slusher B S, Tsai G, Yoo G, Coyle J T. Immunocytochemical localization of the N-acetyl-aspartyl-glutamate hydrolyzing enzyme N-acetylated alpha-linked acidic dipeptidase [NAALADase]. J Comp Neurol 1992; 315:217-229) in crude membrane extracts from LNCaP tissue culture cells (ref ATCC CRL-1740). Briefly, the release of [3H]-Glutamate from [3H] N-acetyl-aspartyl-glutamate (NAAG) in 50 mM Tris-Cl buffer pH7.4 after 30 min at 37° C. was measured using 1-5 μg/ml of protein extracted from the membrane fraction of LNCaP cells; substrate and product were resolved by cation-exchange liquid chromatography.

[3] = tested on: LNCaP xenografts; experiment: PET/CT-imaging in LNCaP-tumor bearing mice; assay type: in vivo; details: 50-70 min after injection of ~10 MBq
Protocol: Example F13 was imaged on a microPET/CT (Inveon, Siemens) in LNCaP tumor-bearing mice 50-70 min after injection of ˜10 MBq radiotracer Example F13.
Example F14 was imaged on a microPET/CT (Inveon, Siemens) in LNCaP tumor-bearing mice 50-70 min after injection of ˜10 MBq radiotracer Example F14.

[4] = Biodistribution in LNCaP bearing nude mice; assay type: in vivo
Protocol: Male nude mice were implanted subcutaneously with 10 million LNCaP tumor cells, which were freshly expanded in a sterilized solution phosphate-buffered saline (PBS, pH 7.4). 4 weeks after inoculation the mice were injected into the tail vein with 150 kBq of radiolabeled Example F13, diluted in PBS (total injected volume 100 μl). At 30, 60, 120, and 180 min intervals, the mice (in groups of 3) were sacrificed and the organs of interest were collected, rinsed of excess blood, weighed and counted in a gamma-counter.

[5] = Stability in human plasma in vitro (TLC); assay type: in vitro ADME
Protocol: Stability of Example F13 was investigated in human plasma in vitro. The Example was analyzed by TLC at different time points. […] After two hours, 82% of Example F13 was still intact.

[6] = Metabolic stability, mouse microsomes (TLC); assay type: in vitro ADME; details: TLC after different timepoints
Protocol: (§1) Metabolic stability of Example F13 was assessed by incubating F13 in the presence of mouse, rat, and human microsomes and rat hepatocytes. After different timepoints TLC analysis was performed. No metabolism by microsomes or hepatocytes was found.

[7] = Metabolic stability, rat microsomes (TLC); assay type: in vitro ADME; details: TLC after different timepoints
Protocol: as §1

[8] = Metabolic stability, human microsomes (TLC); assay type: in vitro ADME; details: TLC after different timepoints
Protocol: as §1

[9] = Metabolic stability, rat hepatocytes (TLC); assay type: in vitro ADME; details: TLC after different timepoints
Protocol: as §1

[10] = 110-130 min after injection of ~10 MBq
[11] = 0.5 h after injection of 150 kBq into tail vein
[12] = 1.0 h after injection of 150 kBq into tail vein
[13] = 2.0 h after injection of 150 kBq into tail vein
[14] = 3.0 h after injection of 150 kBq into tail vein

SMILES: O=C(O)C(F)CC(CP(=O)(O)O)C(=O)O (racemic) [Example F3, rac-2-Fluoro-4-(phosphonomethyl)pentanedioic acid]
- IC50 [2]: 30 nM
- blocking of tumor-contrast of radiotracer Example F15a ([1]; 22 μg non-radioactive Example F3 with ~10 MBq Example F15a, 110-130 min): effectively blocked

SMILES: O=C(O)[C@H](C[C@H](F)C(=O)O)CP(=O)(O)O [Example F10, (2S,4S)-2-Fluoro-4-(phosphonomethyl)pentanedioic acid]
- IC50 [2]: 7 nM

SMILES: O=C(O)[C@H](C[C@@H](F)C(=O)O)CP(=O)(O)O [Example F8, (2R,4S)-2-Fluoro-4-(phosphonomethyl)pentanedioic acid]
- IC50 [2]: 14 nM

The next lines start with results.

- background activity in PET/CT image [1, 10]: very low background activity
- kidney and bladder uptake in PET/CT image [1, 10]: strong kidney and bladder uptake
- renal clearance [1, 10]: rapid renal clearance
SMILES: O=C(O)C([18F])CC(CP(=O)(O)O)C(=O)O (racemic) [Example F15a, rac-2-[^18F]-Fluoro-4-(phosphonomethyl)pentanedioic acid]
- tumor-contrast in PET/CT image [1, 10]: High tumor-contrast

- background activity in PET/CT image [3]: very low background activity
- kidney and bladder uptake in PET/CT image [3]: strong kidney and bladder uptake
- renal clearance [3]: rapid renal clearance
SMILES: O=C(O)[C@H](C[C@@H]([18F])C(=O)O)CP(=O)(O)O [Example F14, (2R,4S)-2-[^18F]-Fluoro-4-(phosphonomethyl)pentanedioic acid]
- tumor-contrast in PET/CT image [3]: High tumor-contrast

- background activity in PET/CT image [3]: very low background activity
- kidney and bladder uptake in PET/CT image [3]: strong kidney and bladder uptake
- renal clearance [3]: rapid renal clearance
- % Dosis/g adrenals [4, 11]: 3.31 % Dosis/g
- % Dosis/g blood [4, 11]: 0.79 % Dosis/g
- % Dosis/g bone [4, 11]: 2.61 % Dosis/g
- % Dosis/g brain [4, 11]: 0.05 % Dosis/g
- % Dosis/g fat [4, 11]: 0.78 % Dosis/g
- % Dosis/g heart [4, 11]: 0.53 % Dosis/g
- % Dosis/g intestine [4, 11]: 0.23 % Dosis/g
- % Dosis/g kidney [4, 11]: 105.78 % Dosis/g
- % Dosis/g liver [4, 11]: 0.40 % Dosis/g
- % Dosis/g lung [4, 11]: 1.12 % Dosis/g
- % Dosis/g muscle [4, 11]: 0.26 % Dosis/g
- % Dosis/g pankreas [4, 11]: 0.45 % Dosis/g
- % Dosis/g prostate [4, 11]: 0.69 % Dosis/g
- % Dosis/g skin [4, 11]: 0.85 % Dosis/g
- % Dosis/g spleen [4, 11]: 3.00 % Dosis/g
- % Dosis/g stomach [4, 11]: 0.51 % Dosis/g
- % Dosis/g tail [4, 11]: 4.69 % Dosis/g
- % Dosis/g testes [4, 11]: 0.76 % Dosis/g
- % Dosis/g thyroid [4, 11]: 0.68 % Dosis/g
- % Dosis/g tumor [4, 11]: 5.31 % Dosis/g
- % Dosis/g adrenals [4, 12]: 2.46 % Dosis/g
- % Dosis/g blood [4, 12]: 0.33 % Dosis/g
- % Dosis/g bone [4, 12]: 2.53 % Dosis/g
- % Dosis/g brain [4, 12]: 0.06 % Dosis/g
- % Dosis/g fat [4, 12]: 0.36 % Dosis/g
- % Dosis/g heart [4, 12]: 0.27 % Dosis/g
- % Dosis/g intestine [4, 12]: 0.23 % Dosis/g
- % Dosis/g kidney [4, 12]: 105.40 % Dosis/g
- % Dosis/g liver [4, 12]: 0.42 % Dosis/g
- % Dosis/g lung [4, 12]: 0.49 % Dosis/g
- % Dosis/g muscle [4, 12]: 0.21 % Dosis/g
- % Dosis/g pankreas [4, 12]: 0.22 % Dosis/g
- % Dosis/g prostate [4, 12]: 0.70 % Dosis/g
- % Dosis/g skin [4, 12]: 0.76 % Dosis/g
- % Dosis/g spleen [4, 12]: 2.48 % Dosis/g
- % Dosis/g stomach [4, 12]: 0.26 % Dosis/g
- % Dosis/g tail [4, 12]: 2.37 % Dosis/g
- % Dosis/g testes [4, 12]: 0.50 % Dosis/g
- % Dosis/g thyroid [4, 12]: 0.45 % Dosis/g
- % Dosis/g tumor [4, 12]: 4.08 % Dosis/g
- % Dosis/g adrenals [4, 13]: 0.51 % Dosis/g
- % Dosis/g blood [4, 13]: 0.07 % Dosis/g
- % Dosis/g bone [4, 13]: 1.52 % Dosis/g
- % Dosis/g brain [4, 13]: 0.04 % Dosis/g
- % Dosis/g fat [4, 13]: 0.17 % Dosis/g
- % Dosis/g heart [4, 13]: 0.06 % Dosis/g
- % Dosis/g intestine [4, 13]: 0.28 % Dosis/g
- % Dosis/g kidney [4, 13]: 41.15 % Dosis/g
- % Dosis/g liver [4, 13]: 0.24 % Dosis/g
- % Dosis/g lung [4, 13]: 0.17 % Dosis/g
- % Dosis/g muscle [4, 13]: 0.12 % Dosis/g
- % Dosis/g pankreas [4, 13]: 0.07 % Dosis/g
- % Dosis/g prostate [4, 13]: 0.66 % Dosis/g
- % Dosis/g skin [4, 13]: 0.29 % Dosis/g
- % Dosis/g spleen [4, 13]: 0.42 % Dosis/g
- % Dosis/g stomach [4, 13]: 0.11 % Dosis/g
- % Dosis/g tail [4, 13]: 1.73 % Dosis/g
- % Dosis/g testes [4, 13]: 0.15 % Dosis/g
- % Dosis/g thyroid [4, 13]: 0.18 % Dosis/g
- % Dosis/g tumor [4, 13]: 3.13 % Dosis/g
- % Dosis/g adrenals [4, 14]: 0.573 % Dosis/g
- % Dosis/g blood [4, 14]: 0.08 % Dosis/g
- % Dosis/g bone [4, 14]: 2.12 % Dosis/g
- % Dosis/g brain [4, 14]: 0.03 % Dosis/g
- % Dosis/g fat [4, 14]: 0.35 % Dosis/g
- % Dosis/g heart [4, 14]: 0.08 % Dosis/g
- % Dosis/g intestine [4, 14]: 1.03 % Dosis/g
- % Dosis/g kidney [4, 14]: 46.96 % Dosis/g
- % Dosis/g liver [4, 14]: 0.35 % Dosis/g
- % Dosis/g lung [4, 14]: 0.16 % Dosis/g
- % Dosis/g muscle [4, 14]: 0.06 % Dosis/g
- % Dosis/g pankreas [4, 14]: 0.09 % Dosis/g
- % Dosis/g prostate [4, 14]: 0.53 % Dosis/g
- % Dosis/g skin [4, 14]: 0.24 % Dosis/g
- % Dosis/g spleen [4, 14]: 0.41 % Dosis/g
- % Dosis/g stomach [4, 14]: 0.20 % Dosis/g
- % Dosis/g tail [4, 14]: 2.52 % Dosis/g
- % Dosis/g testes [4, 14]: 0.20 % Dosis/g
- % Dosis/g thyroid [4, 14]: 0.30 % Dosis/g
- % Dosis/g tumor [4, 14]: 4.54 % Dosis/g
- compound still intact in human plasma ([5]; after two hours, TLC): 82%
- metabolism by microsomes [6]: No metabolism
- metabolism by microsomes [7]: No metabolism
- metabolism by microsomes [8]: No metabolism
- metabolism by hepatocytes [9]: No metabolism
SMILES: O=C(O)[C@H](C[C@H]([18F])C(=O)O)CP(=O)(O)O [Example F13, (2S,4S)-2-[^18F]-Fluoro-4-(phosphonomethyl)pentanedioic acid]
- tumor-contrast in PET/CT image [3]: High tumor-contrast
- release of free fluoride upon incubation in human plasma ([5]; TLC at different time points): did not show increased release of free fluoride
